Test results published in patent USRE47404E1, “Viral hepatitis treatment” (priority 2006, dated 2019).
Read-outs that look alike come from different tables or passages of the source.

How the values were obtained:
[1] = Cytotoxicity, neutral red dye uptake, H/FL-Neo; assay type: cell-based; details: human
Procedure: (§7) Briefly, replicon cell lines were maintained as sub-confluent cultures on 96-well plates. Compounds were added daily for three days in fresh medium. Twenty-four hours after the last dose of compound, antiviral activity was determined by blot hybridization analysis of intracellular HCV RNA, and cytotoxicity was assessed by neutral red dye uptake. EC50, EC90, CC50 and selectivity index were calculated for each compound tested in a replicon cell line. EC50=drug concentration producing a 50% reduction of intracellular HCV RNA relative to the average levels in untreated cultures. EC90=drug concentration producing a 90% reduction of intracellular HCV RNA relative to the average levels in untreated cultures. CC50=drug concentration producing a 50% reduction of neutral red dye uptake relative to the average levels in untreated cultures. Selectivity index=CC50 divided by EC50. EC50, EC90 and CC50 values (±standard deviations [S.D.]) were calculated by linear regression analysis using data combined from all treated cultures.

HCV replication = experiment: Effect of nitazoxanide pre-treatment and treatment duration (3 or 6 days) on antiviral activity in replicon cultures; assay type: cell-based, hepatitis C virus; details: for EC50 / EC90: Hepatitis C virus; for EC50, IFNα-2b / EC90, IFNα-2b: expressed as IFNα-2b concentration
Procedure: Antiviral activity for each test compound was determined as previously described (Okuse et al., 2005, Antiviral Research 65:23-34). Briefly, replicon cell lines were maintained as sub-confluent cultures on 96-well plates. […] Twenty-four hours after the last dose of compound, antiviral activity was determined by blot hybridization analysis of intracellular HCV RNA, and cytotoxicity was assessed by neutral red dye uptake. EC50, EC90, CC50 and selectivity index were calculated for each compound tested in a replicon cell line. […] Selectivity index=CC50 divided by EC50. EC50, EC90 and CC50 values (±standard deviations [S.D.]) were calculated by linear regression analysis using data combined from all treated cultures.
Antiviral activity and cytotoxicity was determined 24 hours after the end of each respective treatment as described previously.

[2] = test system: HCV replication in five HCV genotype 1-derived replicon cell lines; experiment: Median over the five HCV replicon cell lines; assay type: cell-based, hepatitis C virus; details: median of the replicon cell lines; for EC50 / EC90: Hepatitis C virus
Procedure: (§1) Antiviral activity of nitazoxanide, tizoxanide, interferon α, ribavirin and 2′-C-methyl cytidine was assessed in five different HCV replicon cell lines: (1) AVA5, a subgenomic construct of genotype 1b (Blight et al., 2000, Science 290:1972-1974); (2) H/FL-Neo, a genotype 1a full length construct (Blight et al., 2003, Journal of Virology 77:3181-3190); (3) JWT, a subgenomic construct of genotype 1b (Pfeiffer and Kirkegaard, 2005, Journal of Virology, 79:2346-2355); (4) 4-3-10, a subgenomic construct of genotype 1b, developed by a protocol that involved serial passage of JWT cells in 100 μM for one month followed by 400 μM ribavirin for two weeks (Pfeiffer and Kirkegaard, 2005, Journal of Virology, 79:2346-2355); and (5) RP7, a subgenomic construct of genotype 1b (Elazar et al., 2003, Journal of Virology 77:6055-6061).
(§2) Antiviral activity for each test compound was determined as previously described (Okuse et al., 2005, Antiviral Research 65:23-34). Briefly, replicon cell lines were maintained as sub-confluent cultures on 96-well plates. Compounds were added daily for three days in fresh medium. Twenty-four hours after the last dose of compound, antiviral activity was determined by blot hybridization analysis of intracellular HCV RNA, and cytotoxicity was assessed by neutral red dye uptake. EC50, EC90, CC50 and selectivity index were calculated for each compound tested in a replicon cell line. […] Selectivity index=CC50 divided by EC50. EC50, EC90 and CC50 values (±standard deviations [S.D.]) were calculated by linear regression analysis using data combined from all treated cultures.

[3] = test system: HCV replication in RP7 replicon cell line (subgenomic construct of genotype 1b); experiment: microbe, parasite or virus in culture; assay type: cell-based, hepatitis C virus
Procedure: as §1, §2
(§3) Nitazoxanide and tizoxanide were provided by Romark Laboratories, L.C. (Tampa, Fla. USA). […] Ribavirin was purchased from Sigma-Aldrich (St. Louis, Mo. USA). 2′-C-methyl cytidine (Pierra, et al. 2005, Nucleosides Nucleotides Nucleic Acids, 24:767-770) was purchased from Moraveck Biochemicals, Inc. (La Brea, Calif. USA). […] Ribavirin, nitazoxanide, tizoxanide and 2′-C-methyl cytidine were solubilized in 100% tissue culture grade DMSO (Sigma). […] Daily aliquots of test compounds were made from the stock solutions in individual tubes and stored at the appropriate temperatures. On each day of treatment, daily aliquots of the test compounds were suspended into culture medium at room temperature, and immediately added to the cell cultures, thereby subjecting each aliquot of test compound to the same, limited, number of freeze-thaw cycles.
(§4) To evaluate the effect of interferon alpha following pre-treatment with nitazoxanide or tizoxanide, a parental replicon-containing cell line (RP-7) was serially passaged in increasing concentrations of nitazoxanide or tizoxanide. Anti-HCV activity of interferon alpha-2b was determined using the parental cell line and using the cell lines obtained after passage in nitazoxanide or tizoxanide. Anti-HCV activity was determined by the methods described above.
(§5) The parental replicon-containing cell line was established by electroporation of RNA transcribed in vitro off of the Sca-I-linearized Bart 79I plasmid into Huh-7 cells (Elazar et al., 2003). Bart79I encodes for a second-generation high-efficiency bi-cistronic sub-genomic replicon of genotype 1b containing a single adaptive mutation (S1179I) in the NS5A gene, and the neomycinphosphotransferase gene in the first cistron. The electroporated cells were plated along with naïve Huh-7 feeder cells and grown in medium—DMEM (4.5 g/l glucose, L-glutamine and sodium pyruvate—Mediatech 10-013-CV), 10% fetal bovine serum, 1% Penicillin-streptomycin, 1% L-glutamine (final concentration 2 mM), 1×MEM Non-Essential Amino Acids (100×) (Invitrogen)—and 1 mg/ml G418. […] One of the resulting colonies was isolated, expanded, passaged in 700 μg/ml G418, and termed RP-7.

[4] = test system: HCV replication in AVA5 replicon cell line (subgenomic construct of genotype 1b); experiment: microbe, parasite or virus in culture; details: for S.I. = CC50/EC50: AVA5 cell cultures (Table 2)
Procedure: as §1, §2, §3
Analyses of interactions between compounds used in combination treatments were performed using Calcusyn™ software (Biosoft, Cambridge, UK).

[5] = Cytotoxicity, neutral red dye uptake, JWT; assay type: cell-based; details: human
From the text: (§6) Selectivity index=CC50 divided by EC50.

[6] = Cytotoxicity, neutral red dye uptake, AVA5; assay type: cell-based; details: human
Procedure: as §7

[7] = Cytotoxicity, neutral red dye uptake, RP7; assay type: cell-based; details: human
Procedure: as §6, §5

[8] = Cytotoxicity, neutral red dye uptake, 4-3-10; assay type: cell-based; details: human
From the text: as §6

[9] = test system: HCV replication in 4-3-10 replicon cell line (subgenomic genotype 1b, JWT cells passaged in ribavirin); experiment: microbe, parasite or virus in culture; assay type: cell-based, hepatitis C virus
Procedure: as §1, §2, §3

[10] = test system: HCV replication in H/FL-Neo replicon cell line (genotype 1a full length construct); experiment: microbe, parasite or virus in culture; assay type: cell-based, hepatitis C virus
Procedure: as §1, §2, §3

[11] = test system: HCV replication in JWT replicon cell line (subgenomic construct of genotype 1b); experiment: microbe, parasite or virus in culture; assay type: cell-based, hepatitis C virus
Procedure: as §1, §2, §3

AVA5 cells = experiment: Cytotoxicity, neutral red dye uptake, AVA5; assay type: cell-based; details: AVA5 cell cultures, mono and combination treatments (Table 2)
Procedure: as §7

[12] = test system: HCV replication in RP7 cells passaged in nitazoxanide; experiment: HCV replicon antiviral assay, RP7 cells passaged in nitazoxanide; assay type: cell-based, hepatitis C virus; details: cell lines passaged in nitazoxanide or tizoxanide
Procedure: as §2
as §4, with “above. […]” for “above.”

[13] = Hepatitis C virus, read-out: EC50
[14] = Hepatitis C virus, read-out: EC90
[15] = Hepatitis C virus, GETYPE1B, Ava5, AVA5 cell cultures, mono and combination treatments (Table 2)
[16] = AVA5 cell cultures, mono and combination treatments (Table 2)
[17] = AVA5 (Table 2), values for IFNα-2b expressed in IU/mL
[18] = 4-3-10, interferon α-2b in IU/ml

Molecule | CC50 at 3 days [1] [µM] | EC50 [2] [µM] | EC90 [2] [µM] | S.I. (Selectivity Index) = CC50/EC50 [3] | EC50 [3, 13] [µM] | EC90 [3, 14] [µM] | S.I. (Selectivity Index) = CC50/EC50 ([4]; AVA5) | S.I. = CC50/EC50 [4] | EC50 ([4]; Hepatitis C virus, Ava5, 72 h) [µM] | EC90 ([4]; Hepatitis C virus, Ava5, AVA5) [µM] | EC90 [4, 15] [µM] | CC50 at 3 days [7] [µM] | S.I. (Selectivity Index) = CC50/EC50 ([9]; 4-3-10) | EC50 ([9]; Hepatitis C virus) [µM] | EC90 ([9]; Hepatitis C virus) [µM] | S.I. (Selectivity Index) = CC50/EC50 [10] | EC50 [10, 13] [µM] | S.I. (Selectivity Index) = CC50/EC50 [11] | EC50 [11, 13] [µM] | EC90 [11, 14] [µM] | other results
CC(=O)Oc1ccccc1C(=O)Nc1ncc([N+](=O)[O-])s1 [Nitazoxanide, nitazoxanide] | 49 ± 1.5 | 0.13 | 1 | 238 | 0.16 ± 0.01 | 1.2 ± 0.1 | 300 | 181 | 0.13 ± 0.02 | 1 ± 0.2 | 0.93 ± 0.11 | 38 ± 0.8 | 340 | 0.1 ± 0.03 | 0.87 ± 0.16 | 149 | 0.33 ± 0.05 | 354 | 0.11 ± 0.01 | 1 ± 0.2 | EC50 (HCV replication; 72 h, duration 3 days, expressed as NTZ concentration, read-out: EC50, NTZ): 0.22 ± 0.03 µM; EC90 (HCV replication; 72 h, duration 3 days, expressed as NTZ concentration, read-out: EC90, NTZ): 1 ± 0.1 µM; EC50 (HCV replication; 144 h, duration 6 days, expressed as NTZ concentration, read-out: EC50, NTZ): 0.2 ± 0.02 µM; EC90 (HCV replication; 144 h, duration 6 days, expressed as NTZ concentration, read-out: EC90, NTZ): 0.92 ± 0.1 µM; CC50 at 3 days ([5]; JWT, read-out: CC50): 39 ± 1 µM; CC50 at 3 days ([6]; AVA5): 39 ± 3.9 µM; CC50 at 3 days [6, 16]: 38 ± 1.8 µM; CC50 at 3 days [8]: 34 ± 0.4 µM; EC90 [10, 14]: 1.1 ± 0.1 µM
C[C@@]1(O)[C@H](O)[C@@H](CO)O[C@H]1n1ccc(N)nc1=O [2′-C-methyl cytidine] | > 1000 | 2.1 | 8.1 | >150 | 2 ± 0.1 | 9 ± 0.6 | >143 | >188 | 2.1 ± 0.2 | 8.1 ± 0.7 | 8.3 ± 0.7 | > 300 | >143 | 2.1 ± 0.1 | 8 ± 0.9 | >556 | 1.8 ± 0.2 | >136 | 2.2 ± 0.1 | 8.2 ± 0.7 | EC50 (HCV replication; 72 h, duration 3 days, expressed as 2′CMeC concentration, read-out: EC50, 2′CMeC): 1.7 ± 0.2 µM; EC90 (HCV replication; 72 h, duration 3 days, expressed as 2′CMeC concentration, read-out: EC90, 2′CMeC): 6.2 ± 0.5 µM; EC50 (HCV replication; 144 h, duration 6 days, expressed as 2′CMeC concentration, read-out: EC50, 2′CMeC): 1.3 ± 0.2 µM; EC90 (HCV replication; 144 h, duration 6 days, expressed as 2′CMeC concentration, read-out: EC90, 2′CMeC): 5.8 ± 0.9 µM; CC50 at 3 days ([6]; AVA5 HCV replicon cells): > 300 µM; CC50 (AVA5 cells): > 300 µM; EC90 [10, 14]: 8.1 ± 0.8 µM
Interferon α-2b | – | – | – | – | – | – | – | – | – | – | – | – | – | – | – | – | – | – | – | – | EC50, IFNα-2b (HCV replication; duration 3 days): 1.9 ± 0.3 IU/mL; EC90, IFNα-2b (HCV replication; duration 3 days): 8.3 ± 0.9 IU/mL; EC50, IFNα-2b (HCV replication; duration 6 days): 1.7 ± 0.2 IU/mL; EC90, IFNα-2b (HCV replication; duration 6 days): 7.8 ± 0.8 IU/mL; Median EC50 ([2]; interferon α-2b): 0.86 IU/ml; Median EC90 ([2]; interferon α-2b): 5.7 IU/ml; EC50 ([3]; interferon α-2b in IU/ml): 0.41 ± 0.01 IU/ml; EC90 ([3]; interferon α-2b in IU/ml): 3.6 ± 0.2 IU/ml; EC50 [4, 17]: 1.9 ± 0.22 IU/mL; EC90 [4, 17]: 8.9 ± 0.92 IU/mL; EC50 ([4]; AVA5, interferon α-2b in IU/ml): 1.5 ± 0.2 IU/ml; EC90 ([4]; AVA5, interferon α-2b in IU/ml): 8.2 ± 0.8 IU/ml; Resistance after serial passage of the parental cell line in nitazoxanide or tizoxanide [12]: did not induce resistance; EC50 [9, 18]: 0.86 ± 0.06 IU/ml; EC90 [9, 18]: 5.7 ± 0.4 IU/ml; EC50 ([10]; interferon α-2b in IU/ml): 2.1 ± 0.2 IU/ml; EC90 ([10]; interferon α-2b in IU/ml): 9.4 ± 0.9 IU/ml; EC50 ([11]; interferon α-2b in IU/ml): 0.77 ± 0.03 IU/ml; EC90 ([11]; interferon α-2b in IU/ml): 2.6 ± 0.2 IU/ml
O=C(Nc1ncc([N+](=O)[O-])s1)c1ccccc1O [Tizoxanide, tizoxanide] | 4.2 ± 0.2 | 0.15 | 0.77 | 167 | 0.15 ± 0.01 | 0.94 ± 0.1 | 208 | 100 | 0.12 ± 0.01 | 0.77 ± 0.1 | 0.81 ± 0.92 | 25 ± 1 | 191 | 0.11 ± 0.05 | 0.55 ± 0.08 | 17 | 0.25 ± 0.03 | 150 | 0.16 ± 0.02 | 0.76 ± 0.03 | CC50 at 3 days ([5]; JWT, read-out: CC50): 24 ± 2.9 µM; CC50 at 3 days ([6]; AVA5): 25 ± 2.8 µM; CC50 at 3 days [6, 16]: 15 ± 1.2 µM; CC50 at 3 days [8]: 21 ± 1.1 µM; EC90 [10, 14]: 1 ± 0.1 µM
NC(=O)c1ncn([C@@H]2O[C@H](CO)[C@@H](O)[C@H]2O)n1 [Ribavirin] | – | 69 | 122 | 1.2 | 69 ± 4.4 | 122 ± 13 | 1.2 | – | 70 ± 0.5 | 220 ± 34 | – | 77 ± 4.9 | – | – | – | – | – | 3.9 | 23 ± 2.2 | 62 ± 1.7 | CC50 at 3 days [5]: 89 ± 7.5 µM; CC50 at 3 days ([6]; AVA5 HCV replicon cells): 84 ± 4.7 µM
